{"source": "a melting point compilation (Tetko et al.; mined from patent text by program, amines drawn as free bases though some values may be those of a salt)"}
{"units": {"melting point": "°C"}}
{"smiles": "CC(=NOCc1cc(C(F)(F)F)ccc1C(F)(F)F)c1cc(Cl)ccc1NS(=O)(=O)C(F)(F)F", "melting point": "73 to 75"}
{"smiles": "Cc1ncc(-c2ccccc2)c(C(=O)N(C)Cc2cc(C(F)(F)F)cc(C(F)(F)F)c2)n1", "melting point": "149 to 152"}
{"smiles": "Cc1cc(I)ccc1NC(=S)N(C)N", "melting point": "160 to 161"}
{"smiles": "CON=Cc1nc2c(N)nc3ccccc3c2n1CC(C)C", "melting point": "181 to 183"}
{"smiles": "CC(=O)NC1(C)CCCc2nc(OCc3ccccc3)ccc21", "note": "(stereo unspecified)", "melting point": "153 to 154"}
{"smiles": "CC1(C)OC(=S)Nc2ccc(-c3ccc(C#N)s3)cc21", "melting point": "242 to 244"}
{"smiles": "O=C1c2cccc3c([N+](=O)[O-])c(O)cc(c23)C(=O)N1O", "melting point": "267 to 270"}
{"smiles": "Cc1c(SCCCSc2nc3ccccc3[nH]2)ccnc1CSc1nc2ccccc2[nH]1", "melting point": "85 to 87"}
{"smiles": "COC(=O)Cc1c(F)cc(O)cc1F", "melting point": "75.5 to 77.5"}
{"smiles": "COc1ccc2ccccc2c1CCN", "melting point": "> 180"}
{"smiles": "O=S(=O)(On1nnc2ccccc21)c1cccnc1", "melting point": 98}
{"smiles": "CCc1nc2c(N)nc3ccc(OCc4ccccc4)cc3c2n1C", "melting point": "238 to 239"}
{"smiles": "CC(C)(C)c1cc(-c2nc(S)sc2-c2ccccc2)cc(C(C)(C)C)c1O", "melting point": "168 to 171"}
{"smiles": "CC1(C)NC(=O)N(CC(CS(=O)(=O)c2ccc(-c3ccc(C(F)(F)F)cc3)cc2)N(O)C=O)C1=O", "note": "(stereo unspecified)", "melting point": "180 to 182"}
{"smiles": "CC(C)c1nc2cc(COc3ccc(CCCn4ccnc4)cc3)ccc2o1", "melting point": "76 to 77"}
{"smiles": "CCn1c(=O)c2[nH]c(/C=C/c3ccc(O)cc3)nc2n(CC)c1=O", "melting point": "> 270"}
{"smiles": "O=C(O)Cc1ccc(NC(=O)C(Cn2ccnc2)NS(=O)(=O)c2ccc(F)cc2)cc1", "note": "(racemic)", "melting point": "162 to 165"}
{"smiles": "COc1cc(OC)c2c(=O)[nH]c(-c3ccc(CCC(=O)O)cc3)nc2c1", "melting point": 251}
{"smiles": "COC(=O)C1=C(C(=O)OC)C2(c3ccc(Cl)cc3)CCC1O2", "note": "(stereo unspecified)", "melting point": "90 to 91"}
{"smiles": "CNC(=S)C1(c2cnc3ccccc3c2)CCCCC1=O", "note": "(stereo unspecified)", "melting point": "235 to 236"}
{"smiles": "CC(C)n1nc(-c2sc(NC(=O)CCN3CCOCC3)nc2-c2ccccc2)ccc1=O", "melting point": "197 to 198"}
{"smiles": "Nc1c(F)c(Oc2ccc(Cl)c(Cl)c2)nc(C(=O)O)c1Cl", "melting point": "156 to 160"}
{"smiles": "COC(=O)C(c1ccccc1)C1CCN(c2ccc(NC(=O)c3ccccc3-c3ccc(C(F)(F)F)cc3)cc2)CC1", "note": "(stereo unspecified)", "melting point": 151}
{"smiles": "C=C(C)n1c(=O)n(CCCCl)c2ccccc21", "melting point": 115}
{"smiles": "N#CCOc1ccc(-c2ccc(=O)n(Cc3ccc(Cl)cc3F)c2)cc1", "melting point": 160}
{"smiles": "CC(C)(C)OC(=O)Nc1ccc(C#Cc2ccccc2)cc1NC(=O)CC(=O)c1cccc([N+](=O)[O-])c1", "melting point": "177 to 179"}
{"smiles": "C=CCCCCCCOc1ccc(CCC(NC(C)=O)(C(=O)OCC)C(=O)OCC)cc1", "melting point": "50 to 53"}
{"smiles": "CCCCCNC(=O)[C@@H]1CCCN1C(=O)[C@@H](N)CC", "melting point": "140 to 141"}
{"smiles": "O=S(=O)(NCc1ccncc1)c1ccc(-c2ccccc2Cl)cc1", "melting point": "138 to 141"}
{"smiles": "O=c1[nH]c(=S)[nH]cc1CCCc1ccccc1", "melting point": "180 to 182"}
{"smiles": "Cc1nn2ccccc2c1C(=O)c1cccnc1", "melting point": "89 to 90"}
{"smiles": "CC(=O)Nc1cc([N+](=O)[O-])cc([N+](=O)[O-])c1", "melting point": "189 to 191"}
{"smiles": "COC(=O)C(c1ccccc1)c1ccccn1", "note": "(racemic)", "melting point": 74}
{"smiles": "COc1ccc(CCCc2ccc(O)cc2)c(O)c1", "melting point": "95 to 96"}
{"smiles": "Cc1cc(C(=O)O)c(N)cc1Cl", "melting point": "212 to 215"}
{"smiles": "CCOC(=O)c1cnn2c(-c3cccc(N(CC)C(=O)OC)c3)ccnc12", "melting point": 117}
{"smiles": "COCc1c(C(=O)OCCO)ncc2[nH]c3ccc(OCc4ccccc4)cc3c12", "melting point": "165 to 167"}
{"smiles": "CCCC1=NN(c2ccc(C(=O)O)cc2)C(=O)C1=CNc1ccccc1CC", "melting point": 254}
{"smiles": "O=c1[nH]c2cc(Cl)ccc2c(=O)n1CCCN1CC=C(c2ccc(Cl)cc2)CC1", "melting point": "225 to 227"}
{"smiles": "COc1ccc(Sc2nc(C)c(CC(=O)O)s2)nn1", "melting point": "143 to 144"}
{"smiles": "O=C1OCCN1CCN1C(=O)C2(COc3cc4c(cc32)CCO4)c2ccccc21", "note": "(stereo unspecified)", "melting point": "185 to 186"}
{"smiles": "CCCn1nc(C(=O)O)cc1CC(C)(C)NC(=O)OC(C)(C)C", "melting point": "151 to 152"}
{"smiles": "Nc1ncnc2c1ncn2Cc1oc2ccc(F)cc2c(=O)c1-c1cccc(F)c1", "melting point": "180 to 183"}
{"smiles": "O=c1[nH]cnc(C(F)(F)F)c1Br", "melting point": "226 to 227"}
{"smiles": "CN(C(CCn1c(=O)[nH]c2ccsc2c1=O)C(=O)O)S(=O)(=O)c1ccc(Oc2ccccc2)cc1", "note": "(stereo unspecified)", "melting point": "218 to 219"}
{"smiles": "CCOC(=O)c1cnc2nn(C)cc2c1N1CCCCC1", "melting point": "185 to 188"}
{"smiles": "CCOC(=O)C1=C(N)NC(N)=C(C(=O)OCC)C1c1ccccc1C", "melting point": 158}
{"smiles": "O=C(NCC1CCN(CC2COc3ccccc3O2)CC1)c1ccccn1", "note": "(stereo unspecified)", "melting point": "95 to 97"}
{"smiles": "O=C1NCCN1C1CCCc2ccccc21", "note": "(stereo unspecified)", "melting point": "134 to 140"}
{"smiles": "CC(C)c1cccc(C(C)C)c1NC(=O)CC(=O)c1ccccc1", "melting point": "124 to 126"}
{"smiles": "CC(C)N(Cc1ccccc1)S(=O)(=O)N[C@@H](Cc1ccc(NC(=O)c2c(Cl)cccc2Cl)cc1)C(=O)O", "melting point": 159}
{"smiles": "Cc1cc(Oc2ccc(C(F)(F)F)cc2Cl)cc(C)c1N", "melting point": "104 to 105"}
{"smiles": "CCOc1ccccc1NC(N)=S", "melting point": 174}
{"smiles": "CSc1ccc(C2=C(Cl)C(=O)OC2)cc1", "melting point": "156 to 158"}
{"smiles": "COc1cc(C(=O)C(=O)O)cc([N+](=O)[O-])c1O", "melting point": "165 to 167"}
{"smiles": "Cc1c(NC(=O)c2ccc(OCc3ccccc3F)cc2)ccc2cc(CN3CCCC3)cnc12", "melting point": "104 to 105"}
{"smiles": "Nc1nc(OCc2ccc(F)cc2)ncc1F", "melting point": "129 to 131"}
{"smiles": "CN(C)c1ccccc1CS(=O)c1nc2c(n1-c1ccccn1)CCC2", "note": "(stereo unspecified)", "melting point": "140 to 141"}
{"smiles": "O=C(O)c1c2c(nc3ccc(F)cc13)-c1ccc(-c3cccc(F)c3)cc1CCC2", "melting point": "> 300"}
{"smiles": "CC1=C2CCC3C(CCC4(C)C3CCC4(C)O)C2(C)CC(=CO)C1=O", "note": "(stereo unspecified)", "melting point": "182 to 188"}
{"smiles": "CC(C)CCN1C(=O)C(NC(=O)n2ccnc2)C(=O)N(c2ccccc2)c2ccccc21", "note": "(stereo unspecified)", "melting point": "62 to 65"}
{"smiles": "C=Cn1nc(-c2cc(C(C)(C)C)c(O)c(C(C)(C)C)c2)c2ccc(C)nc21", "melting point": "136 to 137"}
{"smiles": "CC(=O)SC1CC(=O)N1C(C(=O)OCc1ccc([N+](=O)[O-])cc1)=P(c1ccccc1)(c1ccccc1)c1ccccc1", "note": "(stereo unspecified)", "melting point": "154 to 155"}
{"smiles": "CCc1c(C)c(=O)oc2cc(O)ccc12", "melting point": 184}
{"smiles": "FC(F)(F)c1nnnn1-c1ccc(OCc2ccccc2)c(Br)c1", "melting point": "66 to 68"}
{"smiles": "CCNC(=O)CCCNC(=O)CCCNC(=O)CCCNC(=O)CCCNC(=O)OC(C)(C)C", "melting point": "196 to 197"}
{"smiles": "CCOC(=O)c1nn(-c2ccccc2)c2c1CCCC2", "melting point": "102 to 103"}
{"smiles": "CC(=O)c1ccc(OCCCCCCCc2cc(C)no2)cc1", "melting point": "69 to 71"}
{"smiles": "O=C(Nc1cc(Cl)ccc1S(=O)(=O)c1ccccc1)N[C@@H](Cc1ccc(NC(=O)c2c(Cl)cncc2Cl)cc1)C(=O)O", "melting point": 204}
{"smiles": "Cc1[nH]c2ccccc2c1CSCCN1CC=C(c2ccccc2)CC1", "melting point": 182}
{"smiles": "COC(=O)Cc1nc(-c2ccc(Cl)cc2)oc1Oc1cc(C)ccc1C", "melting point": 113}
